Source: the NIST ThermoML archive (doi:10.1016/j.jct.2007.07.005)

Test: xn = mol fraction of the nth substance listed
Conditions: Fluid (supercritical or subcritical phases), vibrating tube

CCCCCO [pentan-1-ol] + O=C=O
Conditions | mass density [kg/m3]
323.06 K, 13032 kPa, x2 = 0.9216 | 766.64
323.06 K, 14000 kPa, x2 = 0.8573 | 804.66
323.06 K, 14011 kPa, x2 = 0.9216 | 778.82
323.06 K, 15019 kPa, x2 = 0.8573 | 812.19
323.06 K, 15028 kPa, x2 = 0.9216 | 789.81
323.06 K, 15995 kPa, x2 = 0.9216 | 799.06
323.06 K, 16044 kPa, x2 = 0.8573 | 819.03
323.06 K, 17005 kPa, x2 = 0.8573 | 824.92
323.06 K, 17047 kPa, x2 = 0.9216 | 808.18
323.06 K, 18002 kPa, x2 = 0.9216 | 815.71
323.06 K, 18049 kPa, x2 = 0.8573 | 830.83
323.06 K, 19010 kPa, x2 = 0.8573 | 835.97
323.06 K, 19033 kPa, x2 = 0.9216 | 823.28
323.06 K, 19996 kPa, x2 = 0.9216 | 829.83
323.06 K, 20006 kPa, x2 = 0.8573 | 840.95
323.06 K, 20987 kPa, x2 = 0.8573 | 845.64
323.06 K, 21053 kPa, x2 = 0.9216 | 836.6
323.06 K, 21758 kPa, x2 = 0.9216 | 840.85
323.06 K, 22019 kPa, x2 = 0.8573 | 850.27
323.06 K, 23021 kPa, x2 = 0.8573 | 854.64
323.06 K, 24075 kPa, x2 = 0.8573 | 858.97
323.08 K, 11058 kPa, x2 = 0.7274 | 819.26
323.08 K, 12031 kPa, x2 = 0.7274 | 823.11
323.08 K, 13034 kPa, x2 = 0.7274 | 826.85
323.08 K, 14040 kPa, x2 = 0.7274 | 830.38
323.08 K, 15010 kPa, x2 = 0.7274 | 833.59
323.08 K, 16026 kPa, x2 = 0.7274 | 836.83
323.08 K, 17015 kPa, x2 = 0.7274 | 839.83
323.08 K, 17987 kPa, x2 = 0.7274 | 842.68
323.08 K, 19054 kPa, x2 = 0.7274 | 845.68
323.08 K, 19981 kPa, x2 = 0.7274 | 848.2
323.08 K, 21008 kPa, x2 = 0.7274 | 850.93
323.08 K, 22014 kPa, x2 = 0.7274 | 853.5
323.08 K, 23019 kPa, x2 = 0.7274 | 855.98
323.08 K, 23836 kPa, x2 = 0.7274 | 857.96
323.11 K, 6015 kPa, x2 = 0.1347 | 801.54
323.11 K, 7002 kPa, x2 = 0.1347 | 802.41
323.11 K, 8020 kPa, x2 = 0.1347 | 803.27
323.11 K, 9002 kPa, x2 = 0.1347 | 804.12
323.11 K, 9115 kPa, x2 = 0.6054 | 824.57
323.11 K, 10017 kPa, x2 = 0.1347 | 804.97
323.11 K, 10057 kPa, x2 = 0.6054 | 826.64
323.11 K, 11055 kPa, x2 = 0.1347 | 805.83
323.11 K, 11062 kPa, x2 = 0.6054 | 828.82
323.11 K, 12029 kPa, x2 = 0.1347 | 806.64
323.11 K, 12049 kPa, x2 = 0.6054 | 830.92
323.11 K, 13031 kPa, x2 = 0.1347 | 807.47
323.11 K, 13068 kPa, x2 = 0.6054 | 833.05
323.11 K, 14038 kPa, x2 = 0.1347 | 808.26
323.11 K, 14062 kPa, x2 = 0.6054 | 835.02
323.11 K, 15022 kPa, x2 = 0.1347 | 809.05
323.11 K, 15036 kPa, x2 = 0.6054 | 836.96
323.11 K, 16015 kPa, x2 = 0.1347 | 809.84
323.11 K, 16032 kPa, x2 = 0.6054 | 838.86
323.11 K, 17022 kPa, x2 = 0.1347 | 810.64
323.11 K, 17053 kPa, x2 = 0.6054 | 840.77
323.11 K, 18041 kPa, x2 = 0.1347 | 811.39
323.11 K, 18069 kPa, x2 = 0.6054 | 842.62
323.11 K, 19010 kPa, x2 = 0.1347 | 812.15
323.11 K, 19041 kPa, x2 = 0.6054 | 844.36
323.11 K, 20025 kPa, x2 = 0.1347 | 812.91
323.11 K, 20032 kPa, x2 = 0.6054 | 846.09
